This is an account of results in PubChem BioAssay AID270 (DTP/NCI, 2004).

This experiment concerns BDF1 mice, s.c. Lewis lung carcinoma, T/C %. The experiment is described as follows: NCI In Vivo Anticancer Drug Screen. Data for tumor model Lewis Lung Carcinoma (subcutaneous) in B6D2F1 (BDF1) mice. The protocol:
The antitumor activity of compounds was measured in mice bearing transplantable tumors. Survival or tumor size were measured and the results are expressed as the measurement made in the treated group (T) divided by the measurement made in the vehicle treated control group (C). The tumor model used in this assay is Lewis Lung Carcinoma (subcutaneous) in B6D2F1 (BDF1) mice

[1] abbreviates: endpoint: mean tumor weight, dose: 6.25 mg/kg/injection, schedule: Q01DX011 (ip), vehicle: saline, higher = larger tumour.
Setting [2] is: endpoint: mean tumor weight, dose: 12.5 mg/kg/injection, schedule: Q01DX011 (ip), vehicle: saline, higher = larger tumour.
Where [3] appears, read: endpoint: mean tumor weight, dose: 25.0 mg/kg/injection, schedule: Q01DX011 (ip), vehicle: saline, higher = larger tumour.

Several values for one entry are separate records, joined by “and”; a condition that tells them apart may be missing. Identical values can stand only once. Inconclusive results are not listed.

For the compound `O=NN(CCCl)C(=O)NC1C2CC3CC(C2)CC1C3` (stereo not drawn), the T/C reads like this: (endpoint: median survival time, dose: 10.0 mg/kg/injection, schedule: Q01DX001 (ip), vehicle: Klucel (hydroxypropylcellulose) (HPC), higher = longer survival) 99 % of control and 111 % of control; (endpoint: median survival time, dose: 20.0 mg/kg/injection, schedule: Q01DX001 (ip), vehicle: Klucel (hydroxypropylcellulose) (HPC), higher = longer survival) 100 % of control; (endpoint: median survival time, dose: 25.0 mg/kg/injection, schedule: Q01DX001 (ip), vehicle: saline with Tween-80, higher = longer survival) 102 % of control; (endpoint: median survival time, dose: 38.0 mg/kg/injection, schedule: Q01DX001 (ip), vehicle: saline with Tween-80, higher = longer survival) 101 % of control; (endpoint: median survival time, dose: 40.0 mg/kg/injection, schedule: Q01DX001 (ip), vehicle: Klucel (hydroxypropylcellulose) (HPC), higher = longer survival) 106 % of control; (endpoint: median survival time, dose: 57.0 mg/kg/injection, schedule: Q01DX001 (ip), vehicle: saline with Tween-80, higher = longer survival) 96 % of control. Further, the T/C was 110 % of control (endpoint: median survival time, dose: 80.0 mg/kg/injection, schedule: Q01DX001 (ip), vehicle: Klucel (hydroxypropylcellulose) (HPC), higher = longer survival); 99 % of control and 121 % of control (endpoint: median survival time, dose: 85.0 mg/kg/injection, schedule: Q01DX001 (ip), vehicle: saline with Tween-80, higher = longer survival); 113 % of control (endpoint: median survival time, dose: 160.0 mg/kg/injection, schedule: Q01DX001 (ip), vehicle: Klucel (hydroxypropylcellulose) (HPC), higher = longer survival); 39 % of control (endpoint: median tumor weight (est.), dose: 25.0 mg/kg/injection, schedule: Q01DX001 (ip), vehicle: DMSO, higher = larger tumour); 80 % of control (endpoint: median tumor weight (est.), dose: 25.0 mg/kg/injection, schedule: Q01DX001 (sc), vehicle: olive oil, sesame oil, peanut oil, higher = larger tumour); 60 % of control (endpoint: median tumor weight (est.), dose: 38.0 mg/kg/injection, schedule: Q01DX001 (sc), vehicle: olive oil, sesame oil, peanut oil, higher = larger tumour). In addition, the T/C (endpoint: median tumor weight (est.), dose: 57.0 mg/kg/injection, schedule: Q01DX001 (ip), vehicle: DMSO, higher = larger tumour) was 3 % of control; the T/C (endpoint: median tumor weight (est.), dose: 57.0 mg/kg/injection, schedule: Q01DX001 (sc), vehicle: olive oil, sesame oil, peanut oil, higher = larger tumour) is 52 % of control; the T/C (endpoint: median tumor weight (est.), dose: 80.0 mg/kg/injection, schedule: Q01DX001 (ip), vehicle: saline with Tween-80, higher = larger tumour) was 53 % of control; the T/C (endpoint: median tumor weight (est.), dose: 85.0 mg/kg/injection, schedule: Q01DX001 (sc), vehicle: olive oil, sesame oil, peanut oil, higher = larger tumour) was 36 % of control; the T/C (endpoint: median tumor weight (est.), dose: 161.0 mg/kg/injection, schedule: Q01DX001 (ip), vehicle: saline with Tween-80, higher = larger tumour) was 60 % of control; the T/C (endpoint: median tumor weight (est.), dose: 215.0 mg/kg/injection, schedule: Q01DX001 (ip), vehicle: saline with Tween-80, higher = larger tumour) is 7 % of control.
In the case of `Cc1ccc(NC(=O)N(CCBr)N=O)cc1`, the T/C was 101 % of control (endpoint: median survival time, dose: 0.5 mg/kg/injection, schedule: Q01DX009 (ip), vehicle: other, higher = longer survival); 103 % of control (endpoint: median survival time, dose: 1.0 mg/kg/injection, schedule: Q01DX009 (ip), vehicle: other, higher = longer survival); 97 % of control (endpoint: median survival time, dose: 1.6 mg/kg/injection, schedule: Q01DX009 (ip), vehicle: other, higher = longer survival); 106 % of control (endpoint: median survival time, dose: 2.0 mg/kg/injection, schedule: Q01DX009 (ip), vehicle: other, higher = longer survival); 97 % of control (endpoint: median survival time, dose: 4.0 mg/kg/injection, schedule: Q01DX009 (ip), vehicle: other, higher = longer survival); 94 % of control and 99 % of control (endpoint: median survival time, dose: 6.25 mg/kg/injection, schedule: Q01DX009 (ip), vehicle: other, higher = longer survival). The T/C reads like this: (endpoint: median survival time, dose: 12.5 mg/kg/injection, schedule: Q01DX009 (ip), vehicle: other, higher = longer survival) 95 % of control; (endpoint: median survival time, dose: 25.0 mg/kg/injection, schedule: Q01DX009 (ip), vehicle: other, higher = longer survival) 96 % of control; (endpoint: median survival time, dose: 50.0 mg/kg/injection, schedule: Q01DX009 (ip), vehicle: other, higher = longer survival) 96 % of control.
Turning to `C[C@@H](N)[C@@H](O)c1ccccc1`, the T/C is 91 % of control (endpoint: mean tumor weight, dose: 3.13 mg/kg/injection, schedule: Q01DX011 (ip), vehicle: saline, higher = larger tumour); 67 % of control under setting [1]; 45 % of control under setting [2].
Consider `CNS(=O)(=O)c1ncnc2nc[nH]c12`, for which the T/C was 61 % of control (endpoint: mean tumor weight, dose: 22.0 mg/kg/injection, schedule: Q01DX011 (ip), vehicle: carboxymethylcellulose (CMC), higher = larger tumour); 62 % of control (endpoint: mean tumor weight, dose: 35.0 mg/kg/injection, schedule: Q01DX011 (ip), vehicle: carboxymethylcellulose (CMC), higher = larger tumour); 56 % of control (endpoint: mean tumor weight, dose: 50.0 mg/kg/injection, schedule: Q01DX011 (ip), vehicle: carboxymethylcellulose (CMC), higher = larger tumour).
In the case of `C=C1C(=O)OC2CC(C)C3C4OC4C(O)C3(C)C(O)C12` (stereo not drawn), the T/C is 99 % of control (endpoint: median survival time, dose: 9.38 mg/kg/injection, schedule: Q01DX009 (ip), vehicle: saline with Tween-80, higher = longer survival); 96 % of control (endpoint: median survival time, dose: 18.75 mg/kg/injection, schedule: Q01DX009 (ip), vehicle: saline with Tween-80, higher = longer survival); 101 % of control (endpoint: median survival time, dose: 37.5 mg/kg/injection, schedule: Q01DX009 (ip), vehicle: saline with Tween-80, higher = longer survival).
For `CC1([CH2][Hg][I])COCC([CH2][Hg][I])O1` (stereo not drawn), the T/C (endpoint: mean tumor weight, dose: 5.0 mg/kg/injection, schedule: Q01DX011 (ip), vehicle: saline, higher = larger tumour) was 63 % of control; the T/C (endpoint: mean tumor weight, dose: 10.0 mg/kg/injection, schedule: Q01DX011 (ip), vehicle: saline, higher = larger tumour) is 42 % of control; the T/C (endpoint: mean tumor weight, dose: 20.0 mg/kg/injection, schedule: Q01DX011 (ip), vehicle: saline, higher = larger tumour) was 52 % of control; the T/C (endpoint: mean tumor weight, dose: 40.0 mg/kg/injection, schedule: Q01DX011 (ip), vehicle: saline, higher = larger tumour) was 39 % of control.
For `[N-]=[N+]=CC(=O)CCC(N)C(=O)O` (stereo not drawn), the T/C is, setting by setting: (endpoint: median survival time, dose: 0.1 mg/kg/injection, schedule: Q01DX009 (ip), vehicle: saline, higher = longer survival) 121 % of control; (endpoint: median survival time, dose: 0.2 mg/kg/injection, schedule: Q01DX009 (ip), vehicle: saline, higher = longer survival) 110 % of control; (endpoint: median survival time, dose: 94.0 mg/kg/injection, schedule: Q01DX001 (ip), vehicle: saline, higher = longer survival) 120 % of control; (endpoint: median survival time, dose: 210.0 mg/kg/injection, schedule: Q01DX001 (ip), vehicle: saline, higher = longer survival) 107 % of control.
As to `CCCNc1ncnc2c1cnn2C`, the T/C (endpoint: mean tumor weight, dose: 3.12 mg/kg/injection, schedule: Q01DX011 (ip), vehicle: saline, higher = larger tumour) was 95 % of control; the T/C under setting [1] was 89 % of control; the T/C under setting [2] was 65 % of control; the T/C under setting [3] is 28 % of control.
With `C=C1C(=O)O[C@@H]2/C=C(/C)[C@@]3(O)C=C[C@](C)(C[C@@H](OC(=O)/C(=C\C)COC(C)=O)[C@@H]12)O3`, the T/C by setting is: (endpoint: median survival time, dose: 0.03 mg/kg/injection, schedule: Q01DX009 (ip), vehicle: carboxymethylcellulose (CMC), higher = longer survival) 100 % of control; (endpoint: median survival time, dose: 0.06 mg/kg/injection, schedule: Q01DX009 (ip), vehicle: carboxymethylcellulose (CMC), higher = longer survival) 94 % of control; (endpoint: median survival time, dose: 0.12 mg/kg/injection, schedule: Q01DX009 (ip), vehicle: carboxymethylcellulose (CMC), higher = longer survival) 113 % of control; (endpoint: median survival time, dose: 0.25 mg/kg/injection, schedule: Q01DX009 (ip), vehicle: carboxymethylcellulose (CMC), higher = longer survival) 87 % of control; (endpoint: median survival time, dose: 0.5 mg/kg/injection, schedule: Q01DX009 (ip), vehicle: carboxymethylcellulose (CMC), higher = longer survival) 100 % of control.
As to `O=C1C=CC(=O)c2c(Cl)ccc(O)c21`, the T/C reads like this: (endpoint: median survival time, dose: 0.63 mg/kg/injection, schedule: Q01DX009 (ip), vehicle: Klucel (hydroxypropylcellulose) (HPC), higher = longer survival) 100 % of control; (endpoint: median survival time, dose: 1.25 mg/kg/injection, schedule: Q01DX009 (ip), vehicle: Klucel (hydroxypropylcellulose) (HPC), higher = longer survival) 104 % of control; (endpoint: median survival time, dose: 2.5 mg/kg/injection, schedule: Q01DX009 (ip), vehicle: Klucel (hydroxypropylcellulose) (HPC), higher = longer survival) 102 % of control; (endpoint: median survival time, dose: 5.0 mg/kg/injection, schedule: Q01DX009 (ip), vehicle: Klucel (hydroxypropylcellulose) (HPC), higher = longer survival) 98 % of control.
As for `CC(=O)CC(C)=O.CC(=O)CC(C)=O.CC(=O)CC(C)=O.[V]`, the T/C (endpoint: median survival time, dose: 3.12 mg/kg/injection, schedule: Q01DX009 (ip), vehicle: saline, higher = longer survival) was 109 % of control; the T/C (endpoint: median survival time, dose: 6.25 mg/kg/injection, schedule: Q01DX009 (ip), vehicle: saline, higher = longer survival) was 109 % of control; the T/C (endpoint: median survival time, dose: 12.5 mg/kg/injection, schedule: Q01DX009 (ip), vehicle: saline, higher = longer survival) was 94 % of control.
On to `Nc1ncnc2nc[nH]c12`, for which the T/C by setting is: under setting [2], 101 % of control; under setting [3], 104 % of control; (endpoint: mean tumor weight, dose: 50.0 mg/kg/injection, schedule: Q01DX011 (ip), vehicle: saline, higher = larger tumour) 84 % of control; (endpoint: mean tumor weight, dose: 100.0 mg/kg/injection, schedule: Q01DX011 (ip), vehicle: saline, higher = larger tumour) 43 % of control and 49 % of control.
As for `CC(C)CCC[C@@H](C)[C@H]1CC[C@H]2[C@@H]3CC=C4C[C@@H](O)CC[C@]4(C)[C@H]3CC[C@]12C`, the T/C is 100 % of control (endpoint: median survival time, dose: 100.0 mg/kg/injection, schedule: Q01DX009 (ip), vehicle: Klucel (hydroxypropylcellulose) (HPC), higher = longer survival); 90 % of control (endpoint: median survival time, dose: 200.0 mg/kg/injection, schedule: Q01DX009 (ip), vehicle: Klucel (hydroxypropylcellulose) (HPC), higher = longer survival); 90 % of control (endpoint: median survival time, dose: 400.0 mg/kg/injection, schedule: Q01DX009 (ip), vehicle: Klucel (hydroxypropylcellulose) (HPC), higher = longer survival); 89 % of control (endpoint: median survival time, dose: 800.0 mg/kg/injection, schedule: Q01DX009 (ip), vehicle: Klucel (hydroxypropylcellulose) (HPC), higher = longer survival).
